From patent publication US12404283B2, “c-MYC mRNA translation modulators and uses thereof in the treatment of cancer” (Anima Biotech Inc., priority 2022, dated 2025)

Test system: c-Myc
Test: c-Myc immunofluorescence assay
Format: cell-based, human
Details: A549 cells, 24 hours treatment, anti-c-Myc immunofluorescence
Summary of the method: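 A549 cells grown 48 h, exposed 24 h to rising compound concentrations, then fixed, permeabilised and stained for c-Myc plus DAPI. Nuclear-segmented c-Myc fluorescence quantified by high-content imaging at 20×; EC50 from logistic dose–response fits.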

Row | SMILES | Myc Efficacy (−LogEC50)
1 | CNC(=O)c1ccc(-c2cn3c(n2)sc2cc(NC(=O)CCCN4CCCCC4)ccc23)cc1 [compound 312, N-methyl-4-(7-(4-(piperidin-1-yl)butanamido)benzo[d]imidazo[2,1-b]thiazol-2-yl)benzamide] | ++ (++ ≥5 and <6)
2 | CCN(CC)CCCNC(=O)c1ccc2c(c1)sc1nc(-c3ccc(C4CCOCC4)cc3)cn12 [compound 314, N-(3-(diethylamino)propyl)-2-(4-(tetrahydro-2H-pyran-4-yl)phenyl)benzo[d]imidazo [2,1-b]thiazole-7-carboxamide] | + (+ >3 and <5)
3 | O=C(NCCCN1CCCCC1)c1ccc2c(c1)sc1nc(-c3ccc(C4COC4)cc3)cn12 [compound 315, 2-(4-(oxetan-3-yl)phenyl)-N-(3-(piperidin-1-yl)propyl)benzo[d]imidazo [2,1-b]thiazole-7-carboxamide] | ++ (++ ≥5 and <6)
4 | CNC(=O)c1ccc(-c2cn3c(n2)sc2cc(C(=O)NCCCN4CCCCC4)cnc23)cc1 [compound 317, 2-(4-(methylcarbamoyl)phenyl)-N-(3-(piperidin-1-yl)propyl)imidazo[2′,1′:2,3] thiazolo[4,5-b]pyridine-7-carboxamide] | + (+ >3 and <5)
5 | CCN(CC)CCCNC(=O)c1ccc2c(c1)sc1nc(-c3ccc(C4(N)CC4)cc3)cn12 [compound 318, 2-(4-(1-aminocyclopropyl)phenyl)-N-(3-(diethylamino)propyl)benzo [d]imidazo[2,1-b]thiazole-7-carboxamide] | ++ (++ ≥5 and <6)
6 | CNC(=O)c1ccc(-c2nc3sc4cc(C(=O)NCCCN5CCCCC5)ccc4n3n2)cc1 [compound 319, 2-(4-(methylcarbamoyl)phenyl)-N-(3-(piperidin-1-yl)propyl)benzo[4,5]thiazolo [3,2-b][1,2,4]triazole-6-carboxamide] | ++ (++ ≥5 and <6)
7 | CNC(=O)c1ccc(-c2cn3c(n2)sc2cc(C(=O)NCCCN4CCC(F)CC4)ccc23)c(F)c1 [compound 320, 2-(2-fluoro-4-(methylcarbamoyl)phenyl)-N-(3-(4-fluoropiperidin-1-yl)propyl)benzo[d]imidazo [2,1-b]thiazole-7-carboxamide] | +++ (+++ ≥6)
8 | CNC(=O)c1ccc(-c2cn3c(n2)sc2cc(C(=O)NCCCN4CCCC4)ccc23)c(F)c1 [compound 321, 2-(2-fluoro-4-(methylcarbamoyl)phenyl)-N-(3-(pyrrolidin-1-yl)propyl)benzo[d]imidazo [2,1-b]thiazole-7-carboxamide] | ++ (++ ≥5 and <6)
9 | C#CCCC1(CCNC(=O)c2ccc(-c3cn4c(n3)sc3cc(C(=O)NCCCN(CC)CC)ccc34)cc2)N=N1 [compound 322, 2-(4-((2-(3-(but-3-yn-1-yl)-3H-diazirin-3-yl)ethyl)carbamoyl)phenyl)-N-(3-(diethylamino)propyl) benzo[d]imidazo[2,1-b] thiazole-7-carboxamide] | + (+ >3 and <5)
10 | C#CCCC1(CCN(CC)CCCNC(=O)c2ccc3c(c2)sc2nc(-c4ccc(C(=O)NC)cc4)cn23)N=N1 [compound 323, N-(3-((2-(3-(but-3-yn-1-yl)-3H-diazirin-3-yl)ethyl)(ethyl)amino)propyl)-2-(4-(methylcarbamoyl)phenyl) benzo[d]imidazo[2,1-b]thiazole-7-carboxamide] | +++ (+++ ≥6)
11 | C#CCCC1(CCN2CC[C@H](CNC(=O)c3ccc4c(c3)sc3nc(-c5ccc(C)cc5)cn34)C2)N=N1 [compound 324, (R)-N-((1-(2-(3-(but-3-yn-1-yl)-3H-diazirin-3-yl)ethyl)pyrrolidin-3-yl)methyl)-2-(p-tolyl)benzo[d]imidazo[2,1-b]thiazole-7-carboxamide] | ++ (++ ≥5 and <6)
12 | C#CCCC1(CCN2CC[C@@H](CNC(=O)c3ccc4c(c3)sc3nc(-c5ccc(C)cc5)cn34)C2)N=N1 [compound 325, (S)-N-((1-(2-(3-(but-3-yn-1-yl)-3H-diazirin-3-yl)ethyl)pyrrolidin-3-yl)methyl)-2-(p-tolyl)benzo[d]imidazo[2,1-b]thiazole-7-carboxamide] | ++ (++ ≥5 and <6)
13 | C#CCCC1(CCOc2ccccc2-c2cn3c(n2)sc2cc(C(=O)NCCCN4CCCCC4)ccc23)N=N1 [compound 326, 2-(2-(2-(3-(but-3-yn-1-yl)-3H-diazirin-3-yl)ethoxy)phenyl)-N-(3-(piperidin-1-yl)propyl)benzo[d]imidazo [2,1-b]thiazole-7-carboxamide] | ++ (++ ≥5 and <6)
14 | C#CCCC1(CCOc2cccc(-c3cn4c(n3)sc3cc(C(=O)NCCCN(CC)CC)ccc34)c2)N=N1 [compound 327, 2-(3-(2-(3-(but-3-yn-1-yl)-3H-diazirin-3-yl)ethoxy)phenyl)-N-(3-(diethylamino)propyl)benzo [d]imidazo[2,1-b]thiazole-7-carboxamide] | + (+ >3 and <5)
15 | CCN(CC)CCCNC(=O)c1ccc2c(c1)sc1nc(-c3ccc(C(=O)NC)cc3)nn12 [compound 328, N-(3-(diethylamino)propyl)-2-(4-(methylcarbamoyl)phenyl) benzo[4,5]thiazolo[3,2-b][1,2,4]triazole-6-carboxamide] | ++ (++ ≥5 and <6)
16 | CNC(=O)c1ccc(-c2cn3c(n2)sc2cc(C(=O)N(C)CCCN4CCCCC4)ccc23)cc1 [compound 329, N-methyl-2-(4-(methylcarbamoyl)phenyl)-N-(3-(piperidin-1-yl)propyl)benzo[d]imidazo [2,1-b]thiazole-7-carboxamide] | + (+ >3 and <5)
17 | CCN(CC)CCCNC(=O)c1ccc2c(c1)sc1nc(-c3ccncn3)cn12 [compound 330, N-(3-(diethylamino)propyl)-2-(pyrimidin-4-yl)benzo[d]imidazo[2,1-b]thiazole-7-carboxamide] | + (+ >3 and <5)
18 | CCN(CC)CCCNC(=O)c1ccc2c(c1)sc1nc(-c3ccc(CNC4CC4)cc3F)cn12 [compound 331, 2-(4-((cyclopropylamino)methyl)-2-fluorophenyl)-N-(3-(diethylamino)propyl)benzo [d]imidazo[2,1-b]thiazole-7-carboxamide] | +++ (+++ ≥6)
19 | CCN(CC)CCCN(C)C(=O)c1ccc2c(c1)sc1nc(-c3ccc(C(=O)NC)cc3F)cn12 [compound 333, N-(3-(diethylamino)propyl)-2-(2-fluoro-4-(methylcarbamoyl)phenyl)-N-methylbenzo[d]imidazo[2,1-b]thiazole-7-carboxamide] | + (+ >3 and <5)
20 | CCN(CC)CCCNC(=O)c1ccc2c(c1)sc1nc(-c3cc(F)c(CNC4CC4)cc3F)cn12 [compound 334, 2-(4-((cyclopropylamino)methyl)-2,5-difluorophenyl)-N-(3-(diethylamino)propyl)benzo [d]imidazo[2,1-b]thiazole-7-carboxamide] | ++ (++ ≥5 and <6)
21 | CCN(CC)CCCNC(=O)c1ccc2c(c1)sc1nc(-c3ccc(CN)cc3)nn12 [compound 348, 2-(4-(aminomethyl)phenyl)-N-(3-(diethylamino)propyl)benzo [4,5]thiazolo[3,2-b][1,2,4]triazole-6-carboxamide] | ++ (++ ≥5 and <6)
22 | CCNCCCNC(=O)c1ccc2c(c1)sc1nc(-c3ccc(C(=O)NC)cc3F)cn12 [compound 362, N-(3-(ethylamino)propyl)-2-(2-fluoro-4-(methylcarbamoyl)phenyl) benzo[d]limidazo[2,1-b]thiazole-7-carboxamide] | ++ (++ ≥5 and <6)
23 | CNC(=O)c1ccc(-c2cn3c(n2)sc2cc(C(=O)NC4CCNCC4)ccc23)c(F)c1 [compound 363, 2-(2-fluoro-4-(methylcarbamoyl)phenyl)-N-(piperidin-4-yl)benzo[d]imidazo[2,1-b]thiazole-7-carboxamide] | ++ (++ ≥5 and <6)
24 | CNC(=O)c1ccc(-c2cn3c(n2)sc2cc(NC(=O)C4CCNCC4)ccc23)c(F)c1 [compound 364, N-(2-(2-fluoro-4-(methylcarbamoyl)phenyl)benzo[d]imidazo[2,1-b]thiazol-7-yl)piperidine-4-carboxamide] | ++ (++ ≥5 and <6)
25 | CCN(CC)CCCC(=O)Nc1ccc2c(c1)sc1nc(-c3ccc(C(=O)NC)cc3F)cn12 [compound 365, 4-(7-(4-(diethylamino)butanamido)benzo[d]imidazo[2,1-b]thiazol-2-yl)-3-fluoro-N-methylbenzamide] | ++ (++ ≥5 and <6)
26 | O=C(NCCCN1CCCCC1)c1ccc2c(c1)sc1nc(-c3ccc(CNC4CC4)cc3F)cn12 [compound 368, 2-(4-((cyclopropylamino)methyl)-2-fluorophenyl)-N-(3-(piperidin-1-yl)propyl)benzo[d]imidazo [2,1-b]thiazole-7-carboxamide] | +++ (+++ ≥6)
27 | NCc1ccc(-c2cn3c(n2)sc2cc(C(=O)NCCCN4CCCCC4)ccc23)c(Cl)c1 [compound 369, 2-(4-(aminomethyl)-2-chlorophenyl)-N-(3-(piperidin-1-yl)propyl)benzo[d]imidazo [2,1-b]thiazole-7-carboxamide] | +++ (+++ ≥6)
28 | NCc1ccc(-c2cn3c(n2)sc2cc(C(=O)NCCCN4CCCCC4)ccc23)c(C2CC2)c1 [compound 370, 2-(4-(aminomethyl)-2-cyclopropylphenyl)-N-(3-(piperidin-1-yl)propyl)benzo[d]imidazo [2,1-b]thiazole-7-carboxamide] | +++ (+++ ≥6)
29 | NCc1ccc(-c2cn3c(n2)sc2cc(C(=O)NCCCN4CCCCC4)ccc23)c(C(F)F)c1 [compound 371, 2-(4-(aminomethyl)-2-(difluoromethyl)phenyl)-N-(3-(piperidin-1-yl)propyl)benzo[d]imidazo [2,1-b]thiazole-7-carboxamide] | ++ (++ ≥5 and <6)
